The text below walks through data of patent US5053431A, “Derivatives of chrysophanol as topoisomerase II inhibitors” (Sloan-Kettering Institute For Cancer Research, priority 1990, dated 1991).

≈ marks a conversion by molar mass, not a printed value. Where two headings read alike, the source gives them in different places.

Assay [1] concerns human leukemia HL-60 cells. Put plainly: HL-60 cell growth inhibition (72 h). In kind it is cell-based. The note with it: HL-60, 72 h, read-out: ID50, M [HL-60 cell growth (72 h)] (A). As to the method:
For cell growth inhibition studies, HL-60 cells […]) were grown in RPMI 1640 media at 37° C. in humidified 5% CO2 for 72 h. Viable cells were counted with the trypan blue exclusion method. The fractional inhibitions at four or five concentrations of compounds (in 0.2% DMSO) were analyzed with a median-effect plot (Chou, T.-C., et al., Adv. Enzyme Regul. 22:27 (1984)) by using a computer program. (Chou, J.; Chou, T.-C. Dose-Effect Analyses with Microcomputer. Quantitation of ID50, LD50, Synergism, Antagonism, Low-dose Risk, Receptor-Binding and Enzyme Kinetics; IBM-PC Series, Elsevier-Biosoft, Elsevier Scientific: Cambridge, U.K., (1986)). The median-effect concentration (ID50) was automatically determined for the x intercept of the median-effect plot. Cell growth in the absence of a compound and in the presence of DMSO was used as a control. DMSO (0.2%) alone inhibited cell growth 3.8±1.2% during the 72-h incubation period.

Assay [2] deals with [^3 H]TdR incorporation into DNA in HL-60 cells. Briefly: Inhibition of [3H]TdR incorporation into DNA in HL-60 cells (initial 30 min). In kind it is cell-based, human. The note with it: for IC50: HL-60, initial 30 min exposure, read-out: ID50, M (HL-60 TdR into DNA (B)); for B/A: ratio of ID50 for TdR incorporation (B) to ID50 for cell growth (A), HL-60. The protocol:
For precursor incorporation studies, each compound at four to six concentrations (0.2% DMSO) was preincubated with HL-60 cells (2.5×10^6 /Ml) for 15 min prior to the addition of [^3 H-methyl]TdR (1 μCi, 0.15 nmol/mL) and was incubated for 30 min. […] The incorporation of radioactivity in DNA in the absence of an analogue in the presence of DMSO was used as a control.

The subject of assay [3] is mouse leukemia L1210 cells. Briefly: Inhibition of L1210 cell growth. It counts as cell-based. The protocol: Preliminary biological data for inhibiting cell growth of murine L1210 leukemic cells and human acute promyelocytic leukemia cells (HL-60) during 72 h of exposure to the compounds are given in Table IV. The potencies for inhibiting [^3 H]TdR incorporation into DNA in HL-60 cells during the initial 30-min period are also given in Table IV. It is interesting to note that 1,8-di-O-methyl derivatives are uniformly devoid of activity against L1210 leukemic cells. […] The B/A ratios allow an indirect estimation of whether or not cytotoxicities exerted by these analogues are primarily due to initial inhibition of DNA synthesis. […] Whether these analogues, like m-AMSA, ellipticine, or anthracyclines, act by inhibiting DNA topoisomerase II remains to be explored. […] Our preliminary experiments indicate that the compounds arrest cells in the S and/or G2 phases of the cell cycle (unpublished results).

Assay [4] has as its system DNA (native and thermally denatured). Briefly: Spectrophotometric study of DNA interaction. It counts as binding, calf thymus. Conditions: for interaction with DNA: absorption spectra, native and thermally denatured DNA. The protocol: Some representative compounds were studied for their ability to interact with nucleic acids in solution by comparison of the electronic spectrum of drug alone with that of the drug in the presence of an excess of nucleic acid. All drugs studied have an absorption band in the visible region, separate from the absorption band of the nucleic acids, and therefore any changes in band intensity and position were indicative of drug chromophore-DNA interaction.
Absorption spectra were measured with an IBM 9410 UV-visible spectrometer interfaced to an HP 9826 computer. Small volumes of the stock drug solutions (2 mg/mL in Me2 SO) were added to 2 mL of buffer (0.01 or 0.1 M NaCl, 5 mM Hepes, pH 7) to obtain a final drug concentration of 5-15 μM, or to the solution of native or thermally denatured DNA (0.2 and 0.1 mM, respectively) in the buffer. After incubation at room temperature for 10 min, the spectra were recorded in the 300-600 nm range (increment 1 nm) and corrected by subtracting the spectrum of the blank which was measured before addition of the drug.

[5] abbreviates: Mus musculus, L1210, Table I, read-out: ID50 (the source's name).
Setting [6] is: Mus musculus, L1210, Table I, read-out: ID50 (μg/mL).
[7] abbreviates: Mus musculus, L1210, Table II, antileukemic activity, read-out: L1210: ID50.
Setting [8] is: Mus musculus, Table IV, L1210, 72 h exposure, read-out: ID50, M (L1210 cell growth).

Take `CCN(CC)Cc1cc(O)c2c(c1)C(=O)c1cccc(O)c1C2=O` [XIa-1, 3-[N,N-diethylamino)methyl-1,8-dihydroxy-9,10-anthraquinone]: the IC50 in assay [1] (Homo sapiens, 0.2% DMSO) turned out to be 1.8 µM; in assay [2] (Homo sapiens, 0.5 h) it was 14 µM; in assay [3] (setting [5]) it was 2.8 µM; in assay [3] (setting [6]) it was 0.99 µg/mL; in assay [3] (setting [7]), 2.75 µM; in assay [3] (setting [8]), 280 µM. The B/A in assay [2] is 7.8. For the same molecule, the “interaction with DNA” value in assay [4] was “interact with both native and thermally denatured DNA but more strongly with native DNA”.
For the molecule `COc1cc(O)c2c(c1)C(=O)c1cc(CNCCO)cc(O)c1C2=O` [XIb-6, 3-[N-(2-hydroxyethyl)amino]methyl-1,8-dihydroxy-6-methoxy-9,10-anthraquinone], the IC50 amounted to 1.6 µM in assay [1] (Homo sapiens, 0.2% DMSO); 12 µM in assay [2] (Homo sapiens, 0.5 h); 0.19 µM in assay [3] (setting [5]); 0.072 µg/mL in assay [3] (setting [6]); 0.5 µM in assay [3] (setting [8]). The B/A in assay [2] turned out to be 7.5. For the same molecule, the “interaction with DNA” value in assay [4] is “interact with both native and thermally denatured DNA but more strongly with native DNA”.
`COc1cc(O)c2c(c1)C(=O)c1cc(CNCCCl)cc(O)c1C2=O` [XIb-7, 3-[N-(2-chloroethyl)amino]methyl-1,8-dihydroxy-6-methoxy-9,10-anthraquinone]: the IC50 in assay [1] (Homo sapiens) came to 9.2 µM; in assay [2] (Homo sapiens, 0.5 h) it was 220 µM; in assay [3] (Mus musculus, L1210, 72 h, read-out: ID50, M (L1210 cell growth)), 18 µM. The B/A in assay [2] is on record as 23.9. In assay [4] (Me2 SO to 1:1 v/v), the “reversal of DNA induced changes in absorption spectra by Me2SO” value is “could be reversed by addition of Me2 SO”. For the same molecule, in assay [4] (Na concentration increased from 0.01 to 0.1 M), the “interaction with DNA on increase of salt concentration” value is given as “lost the ability to interact with DNA”.
For “3-[(Diethylamino)methyl]-(or 8)-hydroxy-8(or 1)-methoxy-9,10-anthraquinone [Xa-1]”, the IC50 turned out to be 5.2 µM in assay [1] (0.2% DMSO); 14 µM in assay [2]; 11.9 µM in assay [3] (Table II, antileukemic activity, read-out: L1210: ID50). For the same molecule, the B/A in assay [2] is 2.7. In addition, in assay [4], the “interaction with DNA” value is “interact with both native and thermally denatured DNA but more strongly with native DNA”.
For the molecule `CCNCc1cc(OC)c2c(c1)C(=O)c1cccc(OC)c1C2=O` [IXa-5, 3-(N-ethylamino)methyl-1,8-dimethoxy-9,10-anthraquinone], the IC50 in assay [1] (Homo sapiens, 0.2% DMSO) came out at 48 µM; in assay [2] (Homo sapiens, 0.5 h) it was 29 µM; in assay [3] (setting [5]), 3.59 µM; in assay [3] (setting [6]), 1.3 µg/mL; in assay [3] (setting [8]) it was 1.2 µM. Also, in assay [2], the B/A amounted to 0.60.
`COc1cc(OC)c2c(c1)C(=O)c1cc(CN(CCCl)CCCl)cc(OC)c1C2=O` [IXb-3, 3-[N,N-bis(2-chloroethyl)amino]methyl-1,8,6-trimethoxy-9,10-anthraquinone]: the IC50 in assay [1] (0.2% DMSO) worked out at 2 µM; in assay [2], 8.9 µM; in assay [3] (Table I, read-out: ID50 (the source's name)), 2.66 µM; in assay [3] (Table IV, L1210, 72 h exposure, read-out: ID50, M (L1210 cell growth)), 2.7 µM. Also, the B/A in assay [2] is 4.5. Moreover, the “ID50” value in assay [3] (Table I) is 1.30 µg/mL (≈ 2.87 µM).
Regarding `COc1cccc2c1C(=O)c1c(OC)cc(CNCCO)cc1C2=O` [IXa-6, 3-[N-(2-hydroxyethyl)amino]methyl-1,8-dimethoxy-9,10-anthraquinone], the IC50 in assay [1] (Homo sapiens, 0.2% DMSO) came to 55 µM; in assay [2] (Homo sapiens, 0.5 h), 46 µM; in assay [3] (setting [5]), 142 µM; in assay [3] (setting [6]), 53.7 µg/mL; in assay [3] (setting [8]) it was 140 µM. Also, the B/A in assay [2] amounted to 0.84.
With `COc1cccc2c1C(=O)c1c(OC)cc(CBr)cc1C2=O` [IIIa, 3-bromomethyl-1,8-dimethoxy-9,10-anthraquinone], the IC50 is 4.4 µM in assay [1] (Homo sapiens, 0.2% DMSO); 11 µM in assay [2] (Homo sapiens, 0.5 h); 9.2 µM in assay [3] (setting [8]). The B/A in assay [2] came out at 2.5.
With `CNC(=O)OCCN(CCOC(=O)NC)Cc1cc(O)c2c(c1)C(=O)c1cccc(O)c1C2=O` [XIa-4], the IC50 in assay [1] (Homo sapiens, 0.2% DMSO) is 210 µM; in assay [2] (Homo sapiens, 0.5 h), 28 µM; in assay [3] (setting [8]), > 18 µM. In addition, the B/A in assay [2] came to 0.13.
With `CCNCc1cc(O)c2c(c1)C(=O)c1cc(OC)cc(O)c1C2=O` [XIb-5, 3-(N-ethylamino)methyl-1,8-dihydroxy-6-methoxy-9,10-anthraquinone], the IC50 in assay [1] (Homo sapiens, 0.2% DMSO) amounted to 2.1 µM; in assay [2] (Homo sapiens, 0.5 h), 13 µM; in assay [3] (setting [5]), 0.44 µM; in assay [3] (setting [6]), 0.18 µg/mL; in assay [3] (setting [8]) it was 0.72 µM. For the same molecule, the B/A in assay [2] was 6.2.
As for `O=C1c2cccc(O)c2C(=O)c2c(O)cc(CBr)cc21` [VIa, 3-bromomethyl-1,8-dihydroxy-9,10-anthraquinone], the IC50 turned out to be 7.1 µM in assay [1] (Homo sapiens, 0.2% DMSO); 16 µM in assay [2] (Homo sapiens, 0.5 h); 8.6 µM in assay [3] (setting [8]). The B/A in assay [2] was found to be 2.3.
For `COc1cccc2c1C(=O)c1c(OC)cc(CN(CCO)CCO)cc1C2=O` [IXa-2, 3-[N,N-bis(2-hydroxethyl)amino]methyl-1,8-dimethoxy-9,10-anthraquinone], the IC50 in assay [1] (Homo sapiens, 0.2% DMSO) was 490 µM; in assay [2] (Homo sapiens, 0.5 h) it was 14 µM; in assay [3] (setting [5]) it was > 49.8 µM; in assay [3] (setting [6]), > 21 µg/mL; in assay [3] (setting [7]) it was > 50 µM; in assay [3] (setting [8]), > 50 µM. Also, the B/A in assay [2] stood at 0.03.
With `CCN(CC)Cc1cc(OC)c2c(c1)C(=O)c1cc(OC)cc(OC)c1C2=O` [IXb-1, 3-(N,N-diethylamino)methyl-1,6,8-trimethoxy-9,10-anthraquinone], the IC50 in assay [1] (Homo sapiens, 0.2% DMSO) is 7.9 µM; in assay [2] (Homo sapiens, 0.5 h), 4.2 µM; in assay [3] (setting [5]) it was 6.91 µM; in assay [3] (setting [6]), 2.9 µg/mL. Moreover, the B/A in assay [2] stood at 0.53.
For `O=C1c2cccc(O)c2C(=O)c2c(O)cc(CN(CCO)CCO)cc21` [XIa-2, 3-[N,N-bis(2-hydroxyethyl)amino] methyl-1,8-dihydroxy-9,10-anthraquinone], in that order: 3.3 µM, 14 µM, 5.9 µM, 2.33 µg/mL and 4.2.
Take `CCNCc1cc(O)c2c(c1)C(=O)c1cccc(O)c1C2=O` [XIa-5, 3-[N-ethylamino)methyl-1,8-dihydroxy-9,10-anthraquinone]: the IC50 in assay [1] (Homo sapiens, 0.2% DMSO) was found to be 8.7 µM; in assay [2] (Homo sapiens, 0.5 h), 18 µM; in assay [3] (setting [5]), 0.77 µM; in assay [3] (setting [6]), 0.26 µg/mL. In addition, in assay [2], the B/A is 2.1.
Regarding `O=C1c2cccc(O)c2C(=O)c2c(O)cc(CN3CCCCC3)cc21` [XIa-14], the IC50 in assay [1] (Homo sapiens, 0.2% DMSO) worked out at 2.8 µM; in assay [2] (Homo sapiens, 0.5 h) it was 63 µM; in assay [3] (setting [8]), 4 µM. Further, the B/A in assay [2] was 22.5.
For `CNC(=O)OCCN(CCOC(=O)NC)Cc1cc(OC)c2c(c1)C(=O)c1cccc(OC)c1C2=O` [IXa-4], in that order: 9.5 µM, 9.4 µM, 72 µM and 0.99.
As to `COc1cccc2c1C(=O)c1c(OC)cc(C)cc1C2=O` [IIa, 1,8-Dimethoxy-3-methyl-9,10-anthraquinone], the IC50 stood at 10 µM in assay [1] (Homo sapiens, 0.2% DMSO); 19 µM in assay [2] (Homo sapiens, 0.5 h); 28 µM in assay [3] (setting [8]).
